Reference: PMC6713233 (Toxicology in vitro : an international journal published in …, 2019)
Values joined by “and” are separate entries in the source; they are usually repeats but may differ in a detail not shown here. Equal values may be shown once. Read-outs that look alike come from different tables or passages of the source.

Columns and labels:
[1] = biological target: T1, recombinant human AChE (Homo sapiens, UniProt P22303); assay: biochemical; type: biochemical; conditions: for Emax: read-out: efficacy (%), Fluorescence
[2] = biological target: T1, recombinant human AChE; assay: biochemical; type: biochemical; conditions: for Emax: read-out: efficacy (%), Colorimetric
[3] = biological target: T1, recombinant human AChE; type: biochemical
[4] = biological target: T1, recombinant human AChE; assay: biochemical
[5] = biological target: T1, recombinant human AChE; assay: biochemical; type: biochemical; conditions: for Emax: read-out: efficacy (%), Colorimetric, +Rat MS
[6] = biological target: T1, recombinant human AChE; assay: biochemical; type: biochemical; conditions: for Emax: read-out: efficacy (%), Fluorescence, +Rat MS
[7] = system: AChE; conditions: following exposure; ref International Programme on Chemical Safety, 1989; cited from earlier work
[8] = system: cholinesterase; conditions: following exposure; rats, mice, birds, fish, and farm animals; ref International Programme on Chemical Safety, 1989; cited from earlier work
[9] = IC50 (μM), Colorimetric, +Human MS

T1 sequence (P22303 32-614): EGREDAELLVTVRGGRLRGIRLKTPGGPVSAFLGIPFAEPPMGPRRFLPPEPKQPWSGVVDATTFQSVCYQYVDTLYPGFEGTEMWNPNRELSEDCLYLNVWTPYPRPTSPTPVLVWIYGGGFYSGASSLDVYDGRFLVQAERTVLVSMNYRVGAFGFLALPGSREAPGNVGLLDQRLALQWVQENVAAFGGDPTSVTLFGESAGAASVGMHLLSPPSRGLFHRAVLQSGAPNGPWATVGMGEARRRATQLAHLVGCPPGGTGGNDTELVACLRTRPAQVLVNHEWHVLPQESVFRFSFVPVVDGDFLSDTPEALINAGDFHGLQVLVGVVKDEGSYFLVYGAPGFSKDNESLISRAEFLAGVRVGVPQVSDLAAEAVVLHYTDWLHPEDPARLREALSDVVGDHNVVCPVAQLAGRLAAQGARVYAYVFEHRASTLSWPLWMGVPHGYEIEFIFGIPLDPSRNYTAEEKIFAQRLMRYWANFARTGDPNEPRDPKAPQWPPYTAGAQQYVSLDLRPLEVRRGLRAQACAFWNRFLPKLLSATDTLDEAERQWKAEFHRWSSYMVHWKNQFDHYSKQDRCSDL

| Structure (SMILES) | IC50 (μM), Colorimetric [2] | Emax [1] | Emax [2] | Emax [5] | Emax [6] | other results |
| --- | --- | --- | --- | --- | --- | --- |
| COP(=O)(NC(C)=O)SC (stereo not shown) [Acephat] | Inactive |  |  |  |  | IC50 (μM), Fluorescence [1]: Inactive |
| CCOP(=S)(OCC)OC(Cl)C(Cl)(Cl)Cl (stereo not shown) [Chlorethoxyfos] |  | 99.2% | 46.3% | 105% | 100% | efficacy (%), Fluorescence, +Human MS [3]: 31.57±8.80 (−99.07±7.79) %; efficacy (%), Colorimetric, +Human MS [4]: 10.88±0.00 (−102.91±1.64) %; IC50 [4, 9]: 10.9 µM |
| CCOP(=S)(OCC)Oc1nc(Cl)c(Cl)cc1Cl [Chlorpyrifos] | Inactive | 100% |  | 98.8% | 89.8% | efficacy (%), Fluorescence, +Human MS [3]: 1.22±0.00 (−102.89±2.97) %; efficacy (%), Colorimetric, +Human MS [4]: 1.71±0.47 (−93.65±1.00) %; inhibition of AChE activity [4]: did not inhibit AChE activity; IC50 [4, 9]: 1.71 µM; IC50 ([4]; IC50, inhibition of AChE): 1.31 µM and 0.78 µM and 0.8 µM |
| CCOP(=S)(OCC)Oc1ccc2c(C)c(Cl)c(=O)oc2c1 [Coumaphos] | Inactive | 83.3% |  | 96.5% | 95% | efficacy (%), Fluorescence, +Human MS [3]: 12.95±1.05 (−67.18±4.87) %; efficacy (%), Colorimetric, +Human MS [4]: 8.06±1.94 (−98.15±5.15) %; IC50 [4, 9]: 8.06 µM |
| CCOP(=S)(OCC)Oc1cc(C)nc(C(C)C)n1 [Diazinon] |  | 96.3% | 102% | 73.1% |  | efficacy (%), Fluorescence, +Human MS [3]: 113.22±7.66 (−71.22±6.26) %; IC50 (μM), Colorimetric, +Human MS [4]: Inactive; IC50 (μM), Fluorescence, +Rat MS [6]: Inactive |
| CCOP(=O)(OCC)Oc1cc(C)nc(C(C)C)n1 [Diazoxon] |  | 77.7% | 95.2% |  |  | IC50 [2]: 1.33 µM |
| COP(=O)(OC)OC=C(Cl)Cl [Dichlorvos] |  | 76.8% | 34.9% |  |  |  |
| COP(=O)(OC)O/C(C)=C/C(=O)N(C)C [Dicrotophos] |  | 82.7% | 32.5% |  |  |  |
| CNC(=O)CSP(=S)(OC)OC [Dimethoate] | Inactive |  |  |  |  | AChE inhibition in human volunteers [7]: no AChE inhibition was observed; IC50 (μM), Fluorescence, +Human MS [3]: Inactive; IC50 (μM), Colorimetric, +Human MS [4]: Inactive; cholinesterase activity in animals [8]: cholinesterase activity was inhibited; IC50 (μM), Fluorescence [1]: Inactive; IC50 (μM), Colorimetric, +Rat MS [5]: Inactive; IC50 (μM), Fluorescence, +Rat MS [6]: Inactive |
| CCCSP(=O)(OCC)SCCC [Ethoprop] |  |  | 43.4% |  |  |  |
| CCOP(=O)(SC(C)CC)N1CCSC1=O (stereo not shown) [Fosthiazate] | Inactive |  |  |  |  | IC50 (μM), Fluorescence [1]: Inactive; inhibitory effect on AChE activity (in words) [1]: did not show inhibition effects; inhibitory effect on AChE activity (in words) [2]: did not show inhibition effects |
| CCOC(=O)CC(SP(=O)(OC)OC)C(=O)OCC (stereo not shown) [Malaoxon] |  | 95.2% | 91.1% |  |  |  |
| CCOC(=O)CC(SP(=S)(OC)OC)C(=O)OCC (stereo not shown) [Malathion] | Inactive | 77% |  | 59.4% |  | IC50 (μM), Fluorescence, +Human MS [3]: Inactive; IC50 (μM), Colorimetric, +Human MS [4]: Inactive; IC50 (μM), Fluorescence, +Rat MS [6]: Inactive |
| COP(N)(=O)SC (stereo not shown) [Methamidophos] |  | 103% | 38.7% |  |  |  |
| COP(=O)(OC)OC(Br)C(Cl)(Cl)Br (stereo not shown) [Naled] |  |  | 46.5% |  |  | IC50 (μM), Fluorescence [1]: Inactive; IC50 [2]: 61.3 µM |
| CNC(=O)CSP(=O)(OC)OC [Omethoate] | Inactive | 46.3% |  |  |  | IC50 [1]: 68.9 µM |
| CCOP(=S)(OCC)SCSCC [Phorate] | Inactive | 44.4% |  | 96.3% | 72% | IC50 (μM), Fluorescence, +Human MS [3]: Inactive; IC50 (μM), Colorimetric, +Human MS [4]: Inactive; inhibitory effect on AChE activity (in words) [4]: did not show inhibitory effects |
| COP(=S)(OC)SCN1C(=O)c2ccccc2C1=O [Phosmet] | Inactive | 65.3% |  |  | 43.5% | IC50 (μM), Fluorescence, +Human MS [3]: Inactive; IC50 (μM), Colorimetric, +Human MS [4]: Inactive; IC50 (μM), Colorimetric, +Rat MS [5]: Inactive |
| CCN(CC)c1nc(C)cc(OP(=S)(OC)OC)n1 [Pirimiphos-methyl] | Inactive |  |  |  | 42% | IC50 (μM), Fluorescence, +Human MS [3]: Inactive; IC50 (μM), Colorimetric, +Human MS [4]: Inactive; IC50 (μM), Fluorescence [1]: Inactive; IC50 (μM), Colorimetric, +Rat MS [5]: Inactive; IC50 [6]: 41.7 µM |
| CCCSP(=O)(OCC)Oc1ccc(Br)cc1Cl (stereo not shown) [Profenofos] |  | 93.7% | 83.2% |  |  |  |
| CCOP(=S)(Oc1cnc(C(C)(C)C)nc1)OC(C)C (stereo not shown) [Tebupirimfos] |  | 90.4% | 53% | 100% | 91% | efficacy (%), Fluorescence, +Human MS [3]: 48.81±5.61 (−70.67±3.28) %; efficacy (%), Colorimetric, +Human MS [4]: 14.39±2.31 (−95.21±2.02) %; IC50 [4, 9]: 14.4 µM |
| CCOP(=S)(OCC)SCSC(C)(C)C [Terbufos] | Inactive |  |  | 95.7% | 85.3% | IC50 (μM), Fluorescence, +Human MS [3]: Inactive; efficacy (%), Colorimetric, +Human MS [4]: 31.74±5.73 (−57.67±2.16) %; IC50 [4, 9]: 31.7 µM; IC50 (μM), Fluorescence [1]: Inactive |
| CCCCSP(=O)(SCCCC)SCCCC [Tribufos] | Inactive | 60.8% |  |  |  |  |
| COP(=O)(OC)C(O)C(Cl)(Cl)Cl (stereo not shown) [Trichlorfon] |  | 91.5% | 30% |  |  |  |
| COP(=O)(OC)O/C(=C\Cl)c1cc(Cl)c(Cl)cc1Cl [Z-Tetrachlorvinphos] | Inactive | 75.7% |  |  |  |  |
